# Literature values as cited in PubChem BioAssay AID1259409 (Chemical Carcinogenesis Research Information System (CCRIS), 2018).
# Test system: rodent chemically induced tumor inhibition, incidence and multiplicity
# Experiment: CCRIS tumor inhibitor studies
smiles,measurement,setting,value
C/C(=C\c1ccc(C(=O)O)cc1)c1cc2c(s1)CCCC2(C)C,"tumour outcome (control, treated, inhibition, significance)","Carcinogen: 7,12-DIMETHYLBENZ[A]ANTHRACENE, 57-97-6, Dose [Inhibitor]: 0.17 NMOL IN 0.2 ML ACETONE 1 HR PRIOR TO EACH PROMOTER DOSE FOR 12 WK (STUDY DURATION: 14 WK), Route [Inhibitor]: DERMAL, Species: MOUSE, Strain/Sex: SENCAR/FEMALE, Target Tissue: Type of Lesion: SKIN: PAPILLOMA, Dose [Carcinogen]: 200 NMOL IN 0.2 ML ACETONE ONCE, Promoter: 12-O-TETRADECANOYLPHORBOL-13-ACETATE, 16561-29-8","100%, 100%, 0%, not calculated"
same,"tumour outcome (control, treated, inhibition, significance)","Carcinogen: 7,12-DIMETHYLBENZ[A]ANTHRACENE, 57-97-6, Dose [Inhibitor]: 0.17 NMOL IN 0.2 ML ACETONE 1 HR PRIOR TO EACH PROMOTER DOSE FOR 20 WK (STUDY DURATION: 22 WK), Route [Inhibitor]: DERMAL, Species: MOUSE, Strain/Sex: CD-1/FEMALE, Target Tissue: Type of Lesion: SKIN: PAPILLOMA, Dose [Carcinogen]: 200 NMOL IN 0.2 ML ACETONE ONCE, Promoter: 12-O-TETRADECANOYLPHORBOL-13-ACETATE, 16561-29-8","94%, 89%, 5%, not calculated"
same,"tumour outcome (control, treated, inhibition, significance)","Carcinogen: 7,12-DIMETHYLBENZ[A]ANTHRACENE, 57-97-6, Dose [Inhibitor]: 1.7 NMOL IN 0.2 ML ACETONE 1 HR PRIOR TO EACH PROMOTER DOSE FOR 12 WK (STUDY DURATION: 14 WK), Route [Inhibitor]: DERMAL, Species: MOUSE, Strain/Sex: SENCAR/FEMALE, Target Tissue: Type of Lesion: SKIN: PAPILLOMA, Dose [Carcinogen]: 200 NMOL IN 0.2 ML ACETONE ONCE, Promoter: 12-O-TETRADECANOYLPHORBOL-13-ACETATE, 16561-29-8","100%, 80%, 20%, not calculated"
same,"tumour outcome (control, treated, inhibition, significance)","Carcinogen: 7,12-DIMETHYLBENZ[A]ANTHRACENE, 57-97-6, Dose [Inhibitor]: 1.7 NMOL IN 0.2 ML ACETONE 1 HR PRIOR TO EACH PROMOTER DOSE FOR 20 WK (STUDY DURATION: 22 WK), Route [Inhibitor]: DERMAL, Species: MOUSE, Strain/Sex: CD-1/FEMALE, Target Tissue: Type of Lesion: SKIN: PAPILLOMA, Dose [Carcinogen]: 200 NMOL IN 0.2 ML ACETONE ONCE, Promoter: 12-O-TETRADECANOYLPHORBOL-13-ACETATE, 16561-29-8","94%, 52%, 45%, not calculated"
same,"tumour outcome (control, treated, inhibition, significance)","Carcinogen: 7,12-DIMETHYLBENZ[A]ANTHRACENE, 57-97-6, Dose [Inhibitor]: 17 NMOL IN 0.2 ML ACETONE 1 HR PRIOR TO EACH PROMOTER DOSE FOR 12 WK (STUDY DURATION: 14 WK), Route [Inhibitor]: DERMAL, Species: MOUSE, Strain/Sex: SENCAR/FEMALE, Target Tissue: Type of Lesion: SKIN: PAPILLOMA, Dose [Carcinogen]: 200 NMOL IN 0.2 ML ACETONE ONCE, Promoter: 12-O-TETRADECANOYLPHORBOL-13-ACETATE, 16561-29-8","100%, 3%, 97%, not calculated"
same,"tumour outcome (control, treated, inhibition, significance)","Carcinogen: 7,12-DIMETHYLBENZ[A]ANTHRACENE, 57-97-6, Dose [Inhibitor]: 17 NMOL IN 0.2 ML ACETONE 1 HR PRIOR TO EACH PROMOTER DOSE FOR 20 WK (STUDY DURATION: 22 WK), Route [Inhibitor]: DERMAL, Species: MOUSE, Strain/Sex: CD-1/FEMALE, Target Tissue: Type of Lesion: SKIN: PAPILLOMA, Dose [Carcinogen]: 200 NMOL IN 0.2 ML ACETONE ONCE, Promoter: 12-O-TETRADECANOYLPHORBOL-13-ACETATE, 16561-29-8","94%, 0%, 100%, not calculated"
CC(=O)[C@H]1CC[C@H]2[C@@H]3CCC4=CC(=O)CC[C@]4(C)[C@H]3CC[C@]12C,"tumour outcome (control, treated, inhibition, significance)","Carcinogen: 7,12-DIMETHYLBENZ[A]ANTHRACENE, 57-97-6, Dose [Inhibitor]: 0, 1 MG/100 G BW 3/WK FOR 150 D BEGINNING POST CARCINOGEN TREATMENT (STUDY DURATION: 150 D), Route [Inhibitor]: SUBCUTANEOUS, Species: RAT, Strain/Sex: WISTAR/FEMALE, Target Tissue: Type of Lesion: MAMMARY GLAND: ADENOCARCINOMA, Dose [Carcinogen]: 4 MG IN 0.1 ML OF SESAME OIL INJECTED ONCE INTO THE EXPOSED MAMMARY TISSUE OF HYPERPROLACTINEMIC RATS ON DAY 73 OF AGE, Promoter: NONE USED","8/11 (73%), 5/11 (45%), 38%, p<0.05"
same,"tumour outcome (control, treated, inhibition, significance)","Carcinogen: N-METHYL-N-NITROSOUREA, 684-93-5, Dose [Inhibitor]: 0, 2560 MG/KG IN DIET FOR THE DURATION OF STUDY BEGINNING 7 D PRIOR TO CARCINOGEN DOSE (STUDY DURATION: 187 D), Route [Inhibitor]: ORAL, Species: RAT, Strain/Sex: SPRAGUE-DAWLEY/FEMALE, Target Tissue: Type of Lesion: MAMMARY GLAND: TUMOR, Dose [Carcinogen]: 50 MG/KG BW ONCE, Promoter: NONE USED","100%, 95%, 5%, not significant"
N[C@@H](Cc1ccccc1)C(=O)O,"tumour outcome (control, treated, inhibition, significance)","Carcinogen: N-METHYL-N'-NITRO-N-NITROSOGUANIDINE, 70-25-7, Dose [Inhibitor]: 0, 6% IN DIET FOR 26 WK ADMINISTERED POST CARCINOGEN DOSE (STUDY DURATION: 52 WK ), Route [Inhibitor]: ORAL, Species: RAT, Strain/Sex: WISTAR/MALE, Target Tissue: Type of Lesion: GLANDULAR STOMACH: ADENOCARCINOMA, Dose [Carcinogen]: 50 UG/ML DRINKING WATER FOR 26 WK","18/25 (72%), 9/25 (36%), 50%, not calculated"
